Paper PMC10812557, “Progressive Design of a Ranatuerin-2 Peptide from Amolops wuyiensis: Enhancement of Bioactivity and In Vivo Efficacy” (Antibiotics, 2023)
Peptide text beside a SMILES is read from it.

Columns and labels:
[1] = test system: Galleria mellonella larvae; test: Toxicity in waxworms with no MRSA treatment; format: in vivo; settings: 10 mg/kg
[2] = test system: P. aeruginosa (ATCC 9027); format: cell-based; settings: ATCC 9027, 18 h
Summary of the method: (§1)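 Bacteria grown overnight at 37 °C were diluted to 5 × 10^5 CFU/mL in log phase and incubated 18 h at 37 °C with 2-fold peptide dilutions, with absorbance read at 550 nm. MIC was the lowest concentration preventing growth. For MBC, clear wells were plated on Mueller Hinton agar overnight, and MBC was the lowest concentration giving no colonies.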

E. coli (ATCC 8739) [3] = format: cell-based; settings: ATCC 8739, 18 h
Summary of the method: as §1

[4] = test system: K. pneumoniae (ATCC 43816); format: cell-based; settings: ATCC 43816, 18 h
Summary of the method: as §1

[5] = test system: K. pneumoniae (ATCC 43816); format: cell-based, Klebsiella pneumoniae
Summary of the method: (§2)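 Bacteria diluted to 5 × 10^5 CFU/mL; MBIC from peptide co-incubated with suspension 16-20 h at 37 °C. For MBEC, overnight biofilms at 37 °C were PBS-rinsed, exposed to peptide (512 μM to 1 μM) for 24 h, methanol-fixed, crystal violet-stained, dissolved in 30% acetic acid, read at 595 nm.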

MRSA (NCTC 12493) [6] = test: microbe, parasite or virus in culture; format: cell-based; settings: MRSA (NCTC 12493)
Summary of the method: as §1

E. faecium (NTCC 12697) [7] = test: microbe, parasite or virus in culture; format: cell-based; settings: NTCC 12697, 18 h
Summary of the method: as §1

S. aureus (NCTC 10788) [8] = test: microbe, parasite or virus in culture; format: cell-based; settings: NCTC 10788, 18 h
Summary of the method: as §1

[9] = test system: five human cancer cell lines; format: cell-based; settings: 24 h
Description: Five human cancer cell lines of non-small-cell lung cancer H838, human prostate carcinoma PC-3, human neuronal glioblastoma U251MG, human breast cancer cell MCF-7, and colorectal carcinoma HCT116 were used to detect the antiproliferative abilities of R2AW and its five analogues. According to the procedures in a previous article, cells (8000 cells/well) were seeded into the 96-well tissue culture plates and incubated at 37 °C with 5% CO2 overnight. The solutions of R2AW and its analogues at concentrations of 10^−4 M to 10^−9 M were prepared in the serum-free medium. Next, cells in each well were treated with 100 μL of each peptide solution for 24 h. Subsequently, 10 μL of 5 mg/mL MTT (3-(4, 5-Dimethylthiazol-2-yl-)-2, 5-Diphehyltetrazolium Bromide) was added to each well followed by 37 °C incubation for 2 h. After that, the liquid in each well was removed and 100 μL of DMSO was added to dissolve the purple formazan. The plate was placed on a shaking incubator for 10 min, and the absorbance was detected at 550 nm using a Synergy HT plate reader (Biotech, Minneapolis, MN, USA).

E. coli (ATCC 8739) [10] = format: cell-based, Escherichia coli
Summary of the method: as §2

MCF-7 = format: cell-based, human; settings: 24 h
Summary of the method: (§3)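 Human cancer cells at 8000/well were exposed to peptides at 10^−4 to 10^−9 M in serum-free medium for 24 h at 37 °C. Viability was measured by MTT (2 h), with formazan dissolved in DMSO and absorbance read at 550 nm.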

HCT116 = format: cell-based, human; settings: 24 h
Summary of the method: as §3

U251MG = format: cell-based, human; settings: 24 h
Summary of the method: as §3

PC-3 = format: cell-based, human; settings: 24 h
Summary of the method: as §3

H838 = format: cell-based, human; settings: 24 h
Summary of the method: as §3

MRSA (NCTC 12493) [11] = format: cell-based, methicillin-resistant Staphylococcus aureus; settings: NCTC 12493
Summary of the method: as §2

E. faecium (NTCC 12697) [12] = format: cell-based
Summary of the method: as §2

[13] = test system: P. aeruginosa (ATCC 9027); format: cell-based, Pseudomonas aeruginosa
Summary of the method: as §2

S. aureus (NCTC 10788) [14] = format: cell-based, Staphylococcus aureus
Summary of the method: as §2

CSCC[C@H](NC(=O)[C@H](Cc1ccccc1)NC(=O)CN)C(=O)N[C@@H](CCCCN)C(=O)N[C@H](C(=O)N[C@@H](C)C(=O)N[C@@H](CCCCN)C(=O)N[C@@H](CC(N)=O)C(=O)N[C@H](C(=O)N[C@@H](C)C(=O)N[C@@H](CCCCN)C(=O)N[C@@H](CC(N)=O)C(=O)N[C@H](C(=O)N[C@@H](C)C(=O)N[C@@H](C)C(=O)N[C@H](C(=O)N[C@@H](CC(C)C)C(=O)N[C@@H](CC(C)C)C(=O)N[C@@H](CCCCN)C(=O)N[C@@H](CC(C)C)C(=O)N[C@@H](CC(C)C)C(=O)N[C@@H](CCCCN)C(N)=O)[C@@H](C)O)C(C)C)C(C)C)[C@@H](C)O [[Lys^4,19, Leu^20]R2AW(1-22)-NH2] (H-GFMKTAKNVAKNVAATLLKLLK-NH2)
death of larvae with no MRSA treatment [1]: no death
MBC [2]: 37.7 µg/mL
MIC [2]: 18.9 µg/mL
MBC (E. coli (ATCC 8739) [3]): 9.4 µg/mL
MIC (E. coli (ATCC 8739) [3]): 4.7 µg/mL
MBC [4]: 18.9 µg/mL
MIC [4]: 9.4 µg/mL
MBEC [5]: 256 µM
MBIC [5]: 8 µM
MBC (MRSA (NCTC 12493) [6]): 4.7 µg/mL
MIC (MRSA (NCTC 12493) [6]): 4.7 µg/mL
MBC (E. faecium (NTCC 12697) [7]): 18.9 µg/mL
MIC (E. faecium (NTCC 12697) [7]): 9.4 µg/mL
MBC (S. aureus (NCTC 10788) [8]): 4.7 µg/mL
MIC (S. aureus (NCTC 10788) [8]): 4.7 µg/mL
IC50 [9]: 3.67 to 12 µM
MBEC (E. coli (ATCC 8739) [10]): 256 µM
MBIC (E. coli (ATCC 8739) [10]): 4 µM
IC50 (MCF-7): 10.6 µM
IC50 (HCT116): 9.28 µM
IC50 (U251MG): 12.4 µM
IC50 (PC-3): 3.67 µM
IC50 (H838): 7.83 µM
MBEC (MRSA (NCTC 12493) [11]): > 512 µM
MBIC (MRSA (NCTC 12493) [11]): 4 µM
MBEC (E. faecium (NTCC 12697) [12]): > 512 µM
MBIC (E. faecium (NTCC 12697) [12]): 8 µM
MBEC [13]: 512 µM
MBIC [13]: 16 µM
MBEC (S. aureus (NCTC 10788) [14]): 256 µM
MBIC (S. aureus (NCTC 10788) [14]): 4 µM
